Results taken from patent publication US9980943B2, “Methods of treating muscular dystrophy” (BOARD OF REGENTS OF THE NEVADA SYSTEM OF HIGHER EDUCATION, …, priority 2013, dated 2018).

Columns and labels:
Format in all cases: cell-based, mouse
[1] = test system: β-galactosidase in CMV-LacZ C2C12 myotubes; assay: CMV-LacZ secondary screen in C2C12 myotubes (β-Gal stabilizing assay); conditions: C2C12 CMV-LacZ myotubes, fold relative to DMSO
How it was run: (§1)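 A secondary screen identifies compounds that stabilize β-gal independently of the native promoter, using CMV-LacZ C2C12 cells. Curves span 0.5–40 μM at six levels, in duplicate.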

[2] = test system: β-galactosidase in CMV-LacZ C2C12 myoblasts; assay: CMV-LacZ secondary screen in C2C12 myoblasts (β-Gal stabilizing assay); conditions: CMV-LacZ C2C12 myoblasts
How it was run: as §1

[3] = test system: α7 integrin (LacZ reporter in α7+/LacZ myotubes); assay: Myotube α7 integrin FDG assay (Burkin assay in myotubes, 96-well); conditions: myotubes
[4] = test system: α7 integrin (LacZ reporter in α7βgal+/− myoblasts); assay: Myoblast α7+/LacZ integrin FDG assay (Burkin assay in myoblasts, 96-well); conditions: α7+/LacZ myoblasts, 96-well

| Compound | CMV-LACZ in Myotubes, signal relative to DMSO ([1]; 0.5 uM) | CMV-LACZ in Myotubes, signal relative to DMSO ([1]; 1 uM) | CMV-LACZ in Myotubes, signal relative to DMSO ([1]; 5 uM) | CMV-LACZ in Myotubes, signal relative to DMSO ([1]; 10 uM) | CMV-LACZ in Myotubes, signal relative to DMSO ([1]; 20 uM) | CMV-LACZ in Myotubes, signal relative to DMSO ([1]; 40 uM) | CMV-LACZ in Myoblasts (β-galactosidase activity relative to DMSO) ([2]; 0.5 uM) | CMV-LACZ in Myoblasts (β-galactosidase activity relative to DMSO) ([2]; 1 uM) | CMV-LACZ in Myoblasts (β-galactosidase activity relative to DMSO) ([2]; 5 uM) | CMV-LACZ in Myoblasts (β-galactosidase activity relative to DMSO) ([2]; 10 uM) | CMV-LACZ in Myoblasts (β-galactosidase activity relative to DMSO) ([2]; 20 uM) | CMV-LACZ in Myoblasts (β-galactosidase activity relative to DMSO) ([2]; 40 uM) | Burkin Assay in Myotubes, α7 integrin LacZ reporter signal relative to DMSO ([3]; 0.5 uM) | Burkin Assay in Myotubes, α7 integrin LacZ reporter signal relative to DMSO ([3]; 1 uM) | Burkin Assay in Myotubes, α7 integrin LacZ reporter signal relative to DMSO ([3]; 5 uM) | Burkin Assay in Myotubes, α7 integrin LacZ reporter signal relative to DMSO ([3]; 10 uM) | Burkin Assay in Myotubes, α7 integrin LacZ reporter signal relative to DMSO ([3]; 20 uM) | Burkin Assay in Myotubes, α7 integrin LacZ reporter signal relative to DMSO ([3]; 40 uM) | Burkin Assay in Myoblasts, signal relative to DMSO ([4]; 0.5 uM) | Burkin Assay in Myoblasts, signal relative to DMSO ([4]; 1 uM) | also measured |
| --- | --- | --- | --- | --- | --- | --- | --- | --- | --- | --- | --- | --- | --- | --- | --- | --- | --- | --- | --- | --- | --- |
| CCOc1ccccc1Nc1cc2n(c(=O)n1)CCc1cc(OC)c(OC)cc1-2 [MLS001215294-01] | 0.8838 | 1.0800 | 1.1438 | 1.4324 | 1.2800 | 1.4470 | 1.2983 | 1.2817 | 0.8138 | 1.3412 | 0.3302 | 0.4116 | 1.047 | 1.106 | 0.8935 | 0.8216 | 0.8062 | 0.8079 | 0.9783 | 1.003 | Burkin Assay in Myoblasts, signal relative to DMSO ([4]; 5 uM): 0.7641; Burkin Assay in Myoblasts, signal relative to DMSO ([4]; 10 uM): 0.6141; Burkin Assay in Myoblasts, signal relative to DMSO ([4]; 20 uM): 0.2025; Burkin Assay in Myoblasts, signal relative to DMSO ([4]; 40 uM): 0.2046 |
| O=C(CSc1nnc(COc2ccc(Br)cc2)o1)NC1CCCCC1 [MLS001215357-01] | 1.1547 | 1.1400 | 1.1407 | 1.1192 | 1.3622 | 1.0667 | 1.1560 | 1.2686 | 0.8575 | 1.0378 | 1.2467 | 0.4719 | 0.9366 | 0.8137 | 0.9057 | 0.884 | 0.756 | 0.6929 | 1.037 | 0.93 | Burkin Assay in Myoblasts, signal relative to DMSO ([4]; 5 uM): 0.8837; Burkin Assay in Myoblasts, signal relative to DMSO ([4]; 10 uM): 1.489; Burkin Assay in Myoblasts, signal relative to DMSO ([4]; 20 uM): 0.9203; Burkin Assay in Myoblasts, signal relative to DMSO ([4]; 40 uM): 0.5327 |
| CCCCNc1nnc(Cc2ccc(Cl)cc2)c(=O)[nH]1 [MLS001215795-01] | 0.9363 | 1.0207 | 0.9309 | 1.0250 | 1.3929 | 1.1035 | 0.8003 | 1.1375 | 1.0974 | 0.8628 | 0.8196 | 0.8256 | 1.291 | 1.191 | 0.863 | 0.9107 | 0.9147 | 0.8873 | 1.143 | 1.207 | Burkin Assay in Myoblasts, signal relative to DMSO ([4]; 5 uM): 0.932; Burkin Assay in Myoblasts, signal relative to DMSO ([4]; 10 uM): 0.7776; Burkin Assay in Myoblasts, signal relative to DMSO ([4]; 20 uM): 0.741; Burkin Assay in Myoblasts, signal relative to DMSO ([4]; 40 uM): 0.7187 |
| CC(C)(C)Nc1nc(-c2ccc3c(c2)CCN3C(=O)C2CC2)cs1 [MLS001216939-01] | 1.0311 | 0.9748 | 1.1826 | 1.2568 | 1.1518 | 0.9659 | 1.0991 | 1.1134 | 1.0913 | 0.9452 | 1.1863 | 1.0644 | 1.193 | 1.185 | 1.07 | 1.06 | 0.8529 | 0.4743 | 1.123 | 1.2827 | Burkin Assay in Myoblasts, signal relative to DMSO ([4]; 5 uM): 1.111; Burkin Assay in Myoblasts, signal relative to DMSO ([4]; 10 uM): 0.9828; Burkin Assay in Myoblasts, signal relative to DMSO ([4]; 20 uM): 0.8633; Burkin Assay in Myoblasts, signal relative to DMSO ([4]; 40 uM): 0.7865 |
| Cc1ccc(Cn2nnc3c(=O)[nH]c(C4CCCN(C(=O)c5ccco5)C4)nc32)cc1 (stereo not drawn) [MLS001217212-01] | 1.0190 | 0.9610 | 0.9795 | 1.0832 | 1.1842 | 1.0105 | 1.1804 | 0.9179 | 1.0711 | 1.0626 | 1.1137 | 0.9459 | 0.8233 | 0.8386 | 0.8831 | 0.8772 | 0.7663 | 0.7366 | 1.095 | 1.178 | Burkin Assay in Myoblasts, signal relative to DMSO ([4]; 5 uM): 0.9785; Burkin Assay in Myoblasts, signal relative to DMSO ([4]; 10 uM): 0.9933; Burkin Assay in Myoblasts, signal relative to DMSO ([4]; 20 uM): 0.9967; Burkin Assay in Myoblasts, signal relative to DMSO ([4]; 40 uM): 1.064 |
| CCCc1nnc(SCC(=O)NC2CCCC2)n1CCOC [MLS001217935-01] | 0.9705 | 1.1381 | 1.1473 | 0.9648 | 1.0547 | 0.9495 | 1.1729 | 1.1167 | 1.0175 | 1.0465 | 0.7859 | 0.5381 | 0.9075 | 1.018 | 0.8812 | 1.081 | 0.7887 | 0.5246 | 1.162 | 1.076 | Burkin Assay in Myoblasts, signal relative to DMSO ([4]; 5 uM): 0.9106; Burkin Assay in Myoblasts, signal relative to DMSO ([4]; 10 uM): 0.893; Burkin Assay in Myoblasts, signal relative to DMSO ([4]; 20 uM): 0.8002; Burkin Assay in Myoblasts, signal relative to DMSO ([4]; 40 uM): 0.587 |
